Experiments:
CCRF-CEM T-ALL cells = assay: Antibody (protein) array of apoptosis-related proteins; details: IRAK-1,-4 inhibitor vs DMSO, 72 hours, normalised to GAPDH
Protocol: We also used a protein array from Full Moon Biosystems (Sunnyvale, Calif., USA). For these experiments, purified T-ALL cells were incubated for 48 hours in the presence of IRAK-1,-4 inhibitor (5 μM) or an equal volume of vehicle (DMSO). Then, total protein was extracted, and the levels of various proteins were measured according to the manufacturer's protocol.

A375 melanoma cells = assay: Apoptosis by annexin-V/PI flow cytometry in A375; type: cell-based, human
Protocol: FIG. 8. IRAK-1,-4 inhibition sensitized melanoma cells to vinblastine-mediated cytotoxicity. (A) A375 and Malme-3M melanoma cells were cultured with or without 2.5 μM of IRAK-1,-4 and in the presence varying concentrations of vinblastine, cisplatin or 5′ Fluorouracil. Forty-eight hours later apoptosis was evaluated by staining cells with annexin-V and propidium iodide and analyzed by flow cytometry. (B) A375 cells were transfected via electroporation with siRNA-IRAK-1,-4. IRAK-1 protein levels were examined by Western blotting. […], A375-psiRNA-hIRAK-1, A375-psiRNA-hIRAK-4, or cells expressing both psiRNA-hIRAK-1 and -4 were cultured in the presence of vinblastine (100 nmol/L) for 48 hours and apoptosis was examined by flow cytometry. (C) A375 melanoma cells were cultured in the presence of vehicle alone (DMSO) or various concentrations of IRAK-1,-4. Forty-eight hours later cell lysates were used to analyze the expression of levels of cleaved PARP or caspase-3 by Western blots. (D) A375 melanoma cells were cultured with or without 2.5 μM of IRAK.-1,-4 and in the presence or absence of vinblastine for 48 hrs. PARP and caspase-3 levels were determined by Western blot.
FIG. 20. Role of TLR-induced cytokines and NF-kB on cell survival. […] The percentage of apoptotic cells was measured by staining cells with Annexin and PI 48 hours later and analyzed by flow cytometry. […] After 48 hours, apoptosis was measured by flow cytometry. […] Apoptosis was measured 48 hours later by flow cytometry.
The TLR1-TLR2 ligand tripalmitoyl-S-(bis(palmitoyloxy)propyl)-Cys-Ser-(Lys)3-Lys (Pam3Cys) was purchased from Invivogen (San Diego, Calif., USA). […] In some experiments cells were treated with the indicated concentrations of IRAK.-1,-4 inhibitor and vinblastine, cisplatin, and 5-fluorouracil (Sigma-Aldrich, St. Louis, Mo.), and apoptosis was quantitated by flow cytometry after staining cells with FITC-labeled annexin-V (BD Pharmingen, San Jose, Calif.) and propidium iodide (PI; Sigma-Aldrich).

Structure (SMILES): O=C(Nc1nc2ccccc2n1CCN1CCOCC1)c1cccc([N+](=O)[O-])c1 [IRAK-1,-4 inhibitor]
- Fold Change: AFX(Ab-197) (CCRF-CEM T-ALL cells): −2.62 fold
- Fold Change: AFX(Phospho-Ser 97) (CCRF-CEM T-ALL cells): −2.03 fold
- Fold Change: BAD(Ab-112) (CCRF-CEM T-ALL cells): −1.76 fold
- Fold Change: BAD(Phospho-Ser112) (CCRF-CEM T-ALL cells): −2.44 fold
- Fold Change: BCL-XL(Phospho-Ser62) (CCRF-CEM T-ALL cells): −2.42 fold
- Fold Change: CDC2(Phospho-Tyr15) (CCRF-CEM T-ALL cells): −2.33 fold
- Fold Change: FKHR(Ab-319) (CCRF-CEM T-ALL cells): −2.54 fold
- Fold Change: FKHRL1(Ab-253) (CCRF-CEM T-ALL cells): −2.36 fold
- Fold Change: FKHRL1(Phospho-Ser253) (CCRF-CEM T-ALL cells): −2.53 fold
- Fold Change: GSK3 alpha(Phospho-Ser21) (CCRF-CEM T-ALL cells): −2.13 fold
- Fold Change: HSP27(Phospho-Ser15) (CCRF-CEM T-ALL cells): −2.20 fold
- Fold Change: IKB-alpha(Ab-32/36) (CCRF-CEM T-ALL cells): −1.96 fold
- Fold Change: IKB-alpha(Phospho-Ser32/Phospho-Ser36) (CCRF-CEM T-ALL cells): −2.95 fold
- Fold Change: IRS-1(Phospho-Ser639) (CCRF-CEM T-ALL cells): −2.37 fold
- Fold Change: JAK2(Phospho-Tyr221) (CCRF-CEM T-ALL cells): −2.05 fold
- Fold Change: NFKB-p65(Ab-435) (CCRF-CEM T-ALL cells): −1.39 fold
- Fold Change: NFKB-p65(Phospho-Thr435) (CCRF-CEM T-ALL cells): −2.39 fold
- Fold Change: NFKB-p100/p52(Phospho-Ser869) (CCRF-CEM T-ALL cells): −2.50 fold
- Fold Change: NFKB-p105/p50(Phospho-Ser337) (CCRF-CEM T-ALL cells): −4.06 fold
- Fold Change: PTEN(Phospho-Ser380) (CCRF-CEM T-ALL cells): 1.35 fold
- Fold Change: Raf1(Phospho-Ser338) (CCRF-CEM T-ALL cells): −2.46 fold
- Fold Change: STAT1(Phospho-Ser727) (CCRF-CEM T-ALL cells): −2.17 fold
- Fold Change: STAT3(Phospho-Ser727) (CCRF-CEM T-ALL cells): −2.11 fold
- Fold Change: p44/42 MAP Kinase(Phospho-Tyr204) (CCRF-CEM T-ALL cells): −2.24 fold
- Fold Change: p53(Ab-46) (CCRF-CEM T-ALL cells): −1.39 fold
- Fold Change: p53(Phospho-Ser46) (CCRF-CEM T-ALL cells): −2.27 fold
- sensitivity to vinblastine (apoptosis) (A375 melanoma cells; 2.5 μmol/L IRAK-1,-4 inhibitor with 0-200 nmol/L vinblastine, 48 h): increased sensitivity
- cisplatin's cytotoxicity (A375 melanoma cells; IRAK-1,-4 inhibitor with 0-50 nmol/L cisplatin): did not increase
- melanoma apoptosis (A375 melanoma cells; inhibitor alone, absence of vinblastine): moderately increased
